The source of these data is publication PMC6982040, “A Purified Aspartic Protease from Akkermansia Muciniphila Plays an Important Role in Degrading Muc2” (International Journal of Molecular Sciences, 2019).

Square brackets hold non-standard residues; d marks the D form. Peptide text beside a SMILES is read from it. * marks the point of attachment. Sta = CC(C)C[C@H](N)[C@@H](O)CC(=O)O; Isovaleryl = CC(C)CC(=O)*

The experiment has as its target T1, Amuc_1434* (Akkermansia muciniphila, UniProt B2UKY3).
T1 construct: recombinant, 6xHis-tag (N-terminal as printed; Pet25b-His vector), E. coli Rosetta (DE3), Ni-Sepharose; ~50 kDa on SDS-PAGE; b10 says amplified from genomic DNA, b49 says gene synthesized
T1 sequence (B2UKY3 22-326): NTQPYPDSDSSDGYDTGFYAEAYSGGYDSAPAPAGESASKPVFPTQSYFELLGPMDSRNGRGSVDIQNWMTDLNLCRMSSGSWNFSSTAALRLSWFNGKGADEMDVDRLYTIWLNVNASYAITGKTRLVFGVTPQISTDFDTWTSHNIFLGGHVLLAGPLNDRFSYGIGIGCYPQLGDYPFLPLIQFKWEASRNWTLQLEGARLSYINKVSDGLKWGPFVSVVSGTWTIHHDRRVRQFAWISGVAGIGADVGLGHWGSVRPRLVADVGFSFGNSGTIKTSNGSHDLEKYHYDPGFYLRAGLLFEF
The experiment is described as follows: hemoglobin hydrolysis, UV absorbance at […] nm. It is filed as biochemical. The following applies: read-out: Relative Activity (%).

Regarding `CC(C)CC(=O)N[C@H](C(=O)N[C@H](C(=O)N[C@@H](CC(C)C)[C@@H](O)CC(=O)N[C@@H](C)C(=O)N[C@@H](CC(C)C)[C@@H](O)CC(=O)O)C(C)C)C(C)C` [pepstatin A] (Isovaleryl-VV[Sta]A[Sta]-OH), the activity at 20 µM worked out at 40.1 ± 6.7%. As to `CC(C)C[C@H](NC(=O)[C@@H]1O[C@H]1C(=O)O)C(=O)NCCCCN=C(N)N` [E-64], the activity at 10 µM worked out at 88.5 ± 4.7%.
